Results as given in ChEMBL document CHEMBL1201862, “PubChem BioAssay data set” (2004).
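In this assay, cells in 96-well plates receive the compound at five concentrations for 48 hours. Endpoints are linearly interpolated between the surrounding concentrations. GI50 is the concentration that inhibits growth by half.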 Calls of active or inactive are those of the source. Rule as the data show it: active = GI50 up to about 1.1 µM and inactive = higher.

Key:
Assay in all cases: NCI anticancer screen, dose series, 48 h
786-0 = tested on: 786-0
ACHN = tested on: ACHN
CCRF-CEM = tested on: CCRF-CEM
COLO 205 = tested on: COLO 205
DMS-273 = tested on: DMS-273
HCT-116 = tested on: HCT-116
HOP-92 = tested on: HOP-92
IGROV-1 = tested on: IGROV-1
K562 = tested on: K562
M19-MEL = tested on: M19-MEL
NCI-H226 = tested on: NCI-H226
OVCAR-5 = tested on: OVCAR-5
SF-268 = tested on: SF-268
SK-MEL-5 = tested on: SK-MEL-5
SN12C = tested on: SN12C
SNB-75 = tested on: SNB-75
SNB-78 = tested on: SNB-78
SK-MEL-28 = tested on: SK-MEL-28
DU-145 = tested on: DU-145
MDA-MB-231 = tested on: MDA-MB-231

Measured: GI50

Cc1nc2cc3nc4ccccc4c(O)c3cc2s1
inactive: 786-0 > 100 µM | ACHN > 100 µM | CCRF-CEM > 100 µM | COLO 205 > 100 µM | DMS-273 > 100 µM | HCT-116 > 100 µM | HOP-92 > 100 µM | IGROV-1 > 100 µM | K562 > 100 µM | M19-MEL > 100 µM | NCI-H226 > 100 µM | OVCAR-5 > 100 µM | SF-268 > 100 µM | SK-MEL-5 > 100 µM | SN12C > 100 µM | SNB-75 > 100 µM | SNB-78 > 100 µM

CCOC(=O)C1(c2ccccc2)CCCNCC1 (centres undefined)
inactive: 786-0 > 100 µM | ACHN 85.9 µM | CCRF-CEM 28.1 µM | COLO 205 > 100 µM | DMS-273 57.1 µM | HCT-116 58.9 µM | HOP-92 75.2 µM | IGROV-1 > 100 µM | K562 > 100 µM | M19-MEL > 100 µM | NCI-H226 > 100 µM | OVCAR-5 81.3 µM | SF-268 > 100 µM | SK-MEL-28 > 100 µM | SK-MEL-5 50.7 µM | SN12C 39.4 µM | SNB-75 > 100 µM | SNB-78 > 100 µM

CCC1C(=O)OCc2c1cc1n(c2=O)CCC12OCCO2 (centres undefined)
inactive: 786-0 > 100 µM | ACHN > 100 µM | CCRF-CEM > 100 µM | COLO 205 > 100 µM | DMS-273 > 100 µM | HCT-116 > 100 µM | HOP-92 > 100 µM | IGROV-1 > 100 µM | K562 > 100 µM | M19-MEL > 100 µM | NCI-H226 > 100 µM | OVCAR-5 > 100 µM | SF-268 > 100 µM | SK-MEL-28 > 100 µM | SK-MEL-5 > 100 µM | SN12C > 100 µM | SNB-75 > 100 µM | SNB-78 > 100 µM

N#CC(C(=O)C(=O)NCCCNC(=O)C(=O)C(C#N)c1ccccc1)c1ccccc1 (centres undefined)
inactive: 786-0 > 100 µM | ACHN > 100 µM | CCRF-CEM > 100 µM | COLO 205 > 100 µM | DMS-273 > 100 µM | HCT-116 > 100 µM | HOP-92 > 100 µM | IGROV-1 > 100 µM | K562 > 100 µM | M19-MEL > 100 µM | NCI-H226 > 100 µM | OVCAR-5 > 100 µM | SF-268 > 100 µM | SK-MEL-28 > 100 µM | SK-MEL-5 > 100 µM | SN12C > 100 µM | SNB-75 30.1 µM | SNB-78 > 100 µM

COc1cc(C(N)=O)c(OC)c(OC)c1OC
inactive: 786-0 > 100 µM | ACHN > 100 µM | CCRF-CEM > 100 µM | COLO 205 > 100 µM | DMS-273 > 100 µM | HCT-116 > 100 µM | HOP-92 > 100 µM | IGROV-1 > 100 µM | K562 > 100 µM | M19-MEL > 100 µM | NCI-H226 > 100 µM | OVCAR-5 > 100 µM | SF-268 > 100 µM | SK-MEL-28 > 100 µM | SK-MEL-5 > 100 µM | SN12C > 100 µM | SNB-75 69.8 µM | SNB-78 > 100 µM

NC(=S)N/N=C1\C(=O)N(c2cccc([N+](=O)[O-])c2)C(=O)C1C(=O)Nc1cccc([N+](=O)[O-])c1 (centres undefined)
inactive: 786-0 > 100 µM | ACHN > 100 µM | CCRF-CEM > 100 µM | COLO 205 > 100 µM | DMS-273 > 100 µM | HCT-116 > 100 µM | HOP-92 > 100 µM | IGROV-1 > 100 µM | K562 > 100 µM | M19-MEL > 100 µM | NCI-H226 > 100 µM | OVCAR-5 > 100 µM | SF-268 > 100 µM | SK-MEL-28 > 100 µM | SK-MEL-5 > 100 µM | SN12C > 100 µM | SNB-75 > 100 µM | SNB-78 > 100 µM

CC(=O)OCC1OC(OC2C(CSC3OC(COC(C)=O)C(OC(C)=O)C(OC(C)=O)C3OC(C)=O)OC(OC(C)=O)C(OC(C)=O)C2OC(C)=O)C(OC(C)=O)C(OC(C)=O)C1OC(C)=O (centres undefined)
inactive: 786-0 > 100 µM | ACHN > 100 µM | CCRF-CEM > 100 µM | COLO 205 > 100 µM | DMS-273 > 100 µM | HCT-116 > 100 µM | HOP-92 > 100 µM | IGROV-1 > 100 µM | K562 > 100 µM | M19-MEL > 100 µM | NCI-H226 47.5 µM | OVCAR-5 23.7 µM | SF-268 > 100 µM | SK-MEL-28 > 100 µM | SK-MEL-5 > 100 µM | SN12C > 100 µM | SNB-75 > 100 µM | SNB-78 > 100 µM

Nc1c(S(=O)(=O)c2ccc(Cl)cc2)c2nc3ccccc3nc2n2ccnc12
inactive: 786-0 36.2 µM | ACHN 40.3 µM | CCRF-CEM 39.4 µM | COLO 205 > 100 µM | DMS-273 82 µM | HCT-116 44.3 µM | HOP-92 > 100 µM | IGROV-1 98.6 µM | K562 > 100 µM | M19-MEL > 100 µM | NCI-H226 18.3 µM | OVCAR-5 > 100 µM | SF-268 43.1 µM | SK-MEL-28 > 100 µM | SK-MEL-5 > 100 µM | SN12C > 100 µM | SNB-75 31.6 µM | SNB-78 > 100 µM

COc1ccc(Nc2nnc(-c3nsc4ccccc34)s2)cc1
inactive: 786-0 3.41 µM | ACHN 11.1 µM | CCRF-CEM 34.7 µM | COLO 205 63.7 µM | DMS-273 47.1 µM | DU-145 > 100 µM | HCT-116 8.55 µM | HOP-92 9.73 µM | IGROV-1 > 100 µM | K562 47.2 µM | M19-MEL > 100 µM | MDA-MB-231 6.5 µM | NCI-H226 9.46 µM | OVCAR-5 > 100 µM | SF-268 33.5 µM | SK-MEL-28 > 100 µM | SK-MEL-5 > 84.3 µM | SN12C > 61.4 µM | SNB-75 2.6 µM | SNB-78 > 100 µM

O=S1(=O)c2ccccc2N(O)C2=NCCN21
inactive: 786-0 > 100 µM | ACHN > 100 µM | CCRF-CEM > 100 µM | COLO 205 > 100 µM | DMS-273 > 100 µM | HCT-116 > 100 µM | HOP-92 > 100 µM | IGROV-1 > 100 µM | K562 > 100 µM | M19-MEL > 100 µM | NCI-H226 25.9 µM | OVCAR-5 > 100 µM | SF-268 > 100 µM | SK-MEL-28 > 100 µM | SK-MEL-5 > 100 µM | SN12C > 100 µM | SNB-75 > 100 µM | SNB-78 > 100 µM

COc1c(Cl)cc(NC(=S)C#N)cc1Cl
inactive: 786-0 28.3 µM | ACHN 25.6 µM | CCRF-CEM > 53.8 µM | COLO 205 17.8 µM | DMS-273 30.3 µM | DU-145 35.6 µM | HCT-116 16.4 µM | HOP-92 22.6 µM | IGROV-1 27.1 µM | K562 > 52.2 µM | M19-MEL 19.5 µM | MDA-MB-231 17 µM | NCI-H226 22.5 µM | OVCAR-5 37.1 µM | SF-268 31.2 µM | SK-MEL-28 26.7 µM | SK-MEL-5 15.8 µM | SN12C 20.1 µM | SNB-75 22.5 µM | SNB-78 26.7 µM

O=C(Cc1nc2ccccc2c(=O)n1-c1ccccc1Cl)c1ccncc1
inactive: 786-0 > 100 µM | ACHN > 100 µM | CCRF-CEM > 100 µM | COLO 205 > 100 µM | DMS-273 > 100 µM | HCT-116 > 100 µM | HOP-92 > 100 µM | IGROV-1 > 100 µM | K562 > 100 µM | M19-MEL > 100 µM | NCI-H226 > 100 µM | OVCAR-5 > 100 µM | SF-268 > 100 µM | SK-MEL-28 > 100 µM | SK-MEL-5 > 100 µM | SN12C > 100 µM | SNB-75 15 µM | SNB-78 > 100 µM
